In patent publication US20250161245A1, “A MIXTURE OF UREA, BIURET AND N-CONTAINING BY-PRODUCTS CREATED DURING BIURET PRODUCTION AS A DIETARY NON-PROTEIN NITROGEN-SOURCE FOR RUMINANTS AND USES THEREOF” (Yara International ASA, priority 2022, published 2025):

Test system: ruminal microorganisms
Test: dual-flow continuous culture fermenters simulating rumen fermentation (Example 2)
Assay type: cell-based, Holstein dairy cows
Conditions: NPN 0.51 wt. % urea or 0.55 wt. % UB of diet DM
Method: In this example, an in vitro assay was performed using dual-flow continuous culture fermenters, aiming to simulate rumen fermentation.
Eight 1320 ml dual-flow continuous culture fermenters were used in two replicated periods. Each period consisted out of 5 days for adaptation of the ruminal fluid to the treatments and 3 days for sampling. On the first day of each period, all fermenters were inoculated with undiluted ruminal fluid filtered through two layers of cheesecloth to remove the feed particles. The fermentation conditions were constant, i.e. • a temperature of 39° C., • a pH of 6.4±0.05 by infusion of 3 N HCl or 5 N NaOH, • anaerobiosis with continued infusion of N2 gas at a rate of 40 ml/min, and • continued infusion of artificial saliva to obtain liquid and solid dilution rates of 10%/h and 5%/h, respectively.
The fermenters were fed 95 grams/day of dry matter of a diet formulated to meet or exceed current nutrients recommendations for lactating dairy cows, i.e. • 166 g/kg crude protein (CP), • 323 g/kg neutral detergent fiber (NDF), and • 201 g/kg acid detergent fiber (ADF),
And were fed in three daily administrations, i.e. at 7, 15 and 23 o'clock with a forage: concentrate diet in a range of 53:47.
Ruminal fluid was taken from two Holstein dairy cows fitted with ruminal cannulas fed with a 60:40 forage:concentrate diet with alfalfa and cracked grain (11 kg dry matter/cow/day). The afternoon before the ruminal extraction, the ruminant animals were not fed.
The NPN-dietary treatments were as follows: • Control: basal diet to which 0.51 wt. % urea was added, with wt. % on dry matter basis, • Diet: basal diet to which 0.55 wt. % of the mixture according to the present disclosure, with composition as in example 1, was added, with wt. % on dry matter basis.
On the second day of sampling, 4 ml of filtered fermenter fluid was taken 2 hours after the morning feeding to determine VFA-concentrations.
During sampling days, the collection vessels were maintained at 4° C. to prevent microbial activity. Solid and liquid effluents from 3 sampling days were composited and mixed within the fermenter and homogenized. Subsamples were taken for the analyses of the volatile fatty acids (VFA). The remainder of the sample was lyophilized (freeze drying) and the dry samples were analyzed for DM, ash, N and purines to calculate bacterial nitrogen and organic matter content (OM).
Bacterial cells were obtained from the fermenter flasks the last day of each experimental period. Solid and liquid associated bacteria were isolated using a combination several detachment procedures selected to obtain the maximum detachment without affecting the cell integrity. The bacterial cells were lyophilized and the dry samples were analyzed for dry matter (DM), ash, N and purines to calculate bacterial nitrogen.
Effluent dry matter (DM) was determined by lyophilizing 300 ml aliquots in triplicate. The DM content of the diets and bacterial samples were determined by drying samples for 24 hours in an 103° C. forced air oven (see AOAC, 1990; method 950.01).
Dry samples of diets, effluents and bacteria were ashed overnight at 550° C. in a muffle furnace (see AOAC, 1990, method 976.05) and organic matter (OM) was determined by difference. Total N of diets, effluents and bacterial samples were determined by a Kjeldhal method (AOAC, 1990; method 976.05). Sample crude protein (CP) was calculated as N×6.25. Effluent CP was determined in liquid samples. Crude protein degradation was calculated as the difference between CP in the diet minus CP in the effluent and expressed as wt. % of DM. The EMPS was determined by dividing bacterial N by fermented organic matter.
The fiber components of the diets and the effluents were analyzed sequentially using a thermostable alpha-amylase and sodium sulfite and expressed without residual ash.
The samples for the VFA-analysis were prepared as described by Jouany, J. P., and J. Senaud. […]

NC(N)=O [Urea, urea]
Acetate to propionate ratio: 3.5 | CP degradation: 47.7 % of dry matter | EMPS: 35.7 g bacterial N/kg of fermented organic matter | True digestibility DM: 53.53 wt. % of DM | True digestibility OM: 52.95 wt. % of DM | VFA Acetate: 62.92 | VFA Propionate: 18.18
